Like-named read-outs stand apart in the source and are kept apart here.
How the values were obtained:
[1] = tested on: L929 healthy fibroblast cells; test: MTT cell viability, dark and PDT; assay type: cell-based; conditions: Mus musculus
Experimental: (§1) The time- and concentration-dependent effects of NSeAze and NSeMorph on glioblastoma cells were determined by using the MTT assay (Figure S7). In this regard, U118MG and U87MG cells were administered with NSeMorph (0.5–20 μM) and NSeAze (0.01–2.5 μM) for 24 h to evaluate their dark toxicity. Before PDT application, both cell lines were treated as indicated for 1 h and then exposed to 660 nm LED light for 2 and 1 h, respectively (Figure ). Following overnight incubation, the resulting cell viability was calculated and compared to the effect of both compounds in the absence of irradiation. […]
(§2) Cell Culture and Treatment
(§3) Human glioblastoma cell lines (U118MG and U87MG) and healthy mouse fibroblast cells (L929) were cultured in DMEM high glucose medium supplemented with 10% fetal bovine serum (FBS), 2 mM glutamine, 1% penicillin/stremptomycin, 0.5% amphotericin B, and incubated at 37 °C with 5% CO2. NSeMorph and NSeAze were dissolved in cell culture-grade DMSO and further diluted in complete medium for experimental use. For phototoxicity analysis, cells were administered with NSeMorph […]
(§4) mW/cm2) irradiation for 2 h in NSeMorph-treated groups and 1 h in NSeAze-treated groups. Then, each group were incubated for further 24 h in the dark to allow for resting. On the other hand, the dark toxicity of both agents was detected following the same treatment under identical conditions without LED irradiation. To determine the involvement of distinct ROS types, cells were pretreated for 1 h with selective […]
(§5) scavengers prior to photosensitizer exposure. The scavengers included NAC (5 mM), NaN3 (5 mM), histidine (5 mM), Tiron (100 µM), mannitol (25 mM) and Trolox (25 µM).
(§6) Cell viability was then assessed following irradiation. For index calculations, all cells were treated with the increasing concentrations (0.5-500 µM) of NSeMorph and NSeAze for 24 h. Final DMSO concentrations were kept below 0.5% (v/v) in all […]
(§7) PI=IC50, dark /IC50, light
(§8) SI= IC50, light, healthy cells/IC50, light, cancer cells
(§9) TI= IC50, dark, healthy cells/IC50, light, cancer cells
(§10) The viability of cells treated with NSeMorph and NSeAze was determined with MTT (3-[4,5-dimethylthiazol-2-yl]-2,5-diphenyltetrazoliumbromide) assay. Following the administration of both compounds, the medium was discarded and cells were treated with fresh media containing MTT (0.5 mg/ml) for 2-4 h at 37 °C. Formazan crystals were then solubilized in 10% SDS in 0.01 N HCl, and absorbance was measured at 490 and 570 nm wavelength using microplate reader (Multiskan Sky, Thermo Scientific). Data were normalized to vehicle (DMSO)-treated controls. IC50 values were calculated using nonlinear regression analysis in GraphPad Prism 9.02 (GraphPad Software Inc.). All experiments were performed in technical and biological replicates

[2] = Absorption and emission spectra, fluorescence quantum yield; assay type: physicochemical; conditions: for ε (M^–1 cm^–1) / λabs (nm) / λems (nm): In PBS (pH 7.4, 1% DMSO); for φF (%) fluorescence quantum yield: Reference: methylene blue in MeOH (φF = 23%)
Experimental: First, the absorption and emission spectra of both PSs, NSeMorph and NSeAze, were recorded in PBS buffer (pH 7.4, 1% DMSO).
Photophysical Characterization
Fluorescence Quantum Yield
Fluorescence quantum yields of the samples were investigated using a fluorescence spectrometer (FLS 1000, Edinburgh Instruments) equipped with an integrating sphere accessory. A continuous-wave xenon lamp served as the excitation source, and the emitted fluorescence was detected with a standard photomultiplier (PMT-900) covering a wavelength range of 200-800 nm. During measurements, the PMT was cooled to - 20 °C using a built-in housing to reduce undesired dark current noise.
For quantum yield measurement, an integrating sphere (Edinburgh Instruments) was placed inside the spectrometer's sample compartment. The internal cavity of the sphere was coated with a PTFE-like material, enabling a reflectance of approximately […]
respectively. The sphere had two ports positioned 90° apart. The excitation beam was directed to the sample through the excitation port, and the fluorescence was collected from the emission port. The excitation port of the sphere included a lens to effectively focus the beam on the sample, while the emission port was an open aperture.
Prior to the experiments with the PSs, blank spectra were measured using the reference solvents (PBS, pH 7.4, 1% DMSO). For both measurements (blank and sample), two identical quartz cuvettes with equal volumes were used. Initially, the reference sample was placed inside the sphere, and the emission/excitation slits were adjusted to the excitation wavelength to ensure the PMT's response remained linear during measurements. To cover a scattering range, the emission scans started 20 nm below the actual excitation wavelengths and ended at 900 nm. Additionally, the step size and integration time of the measurements were set to 1 nm and 0.2 seconds, […]
Upon completing all emission measurements of the samples and references, the quantum yields of the samples were determined using the Fluoracle software. The built-in analysis tool calculates the quantum yield (QY) as: […]
where Es (EB) and Ss (SB) are the selected areas for the emitted and scattered signals

[3] = tested on: U118MG glioblastoma cells; test: MTT cell viability, dark and PDT; assay type: cell-based, human
Experimental: as §1, §2, §3, §4, §5, §6, §7, §8, §9, §10

[4] = tested on: U87MG glioblastoma cells; test: MTT cell viability, dark and PDT; assay type: cell-based, human
Experimental: as §1, §2, §3, §4, §5, §6, §7, §8, §9, §10

[5] = L929, 1 h incubation, 660 nm LED 2 h (NSeMorph) or 1 h (NSeAze), read-out: IC50 (light)
[6] = L929, dark, 24 h, read-out: IC50 (dark)
[7] = Homo sapiens, U-118-MG, 1 h incubation, 660 nm LED 2 h (NSeMorph) or 1 h (NSeAze), read-out: IC50 (light)
[8] = Homo sapiens, U-118-MG, 24 h, dark, 24 h, read-out: IC50 (dark)
[9] = Homo sapiens, U-87 MG, 1 h incubation, 660 nm LED 2 h (NSeMorph) or 1 h (NSeAze), read-out: IC50 (light)
[10] = Homo sapiens, U-87 MG, 24 h, dark, 24 h, read-out: IC50 (dark)
[11] = 1 h incubation, 660 nm LED 2 h (NSeMorph) or 1 h (NSeAze), read-out: IC50 (light)

For `c1cc2nc3ccc(=[N+]4CCC4)cc-3[se]c2cc1N1CCC1` [NSeAze], the IC50 [1, 5] was < 1 µM, the IC50 [1, 6] was 129 ± 5.1 µM and the “ε (M^–1 cm^–1)” value [2] was 15,300 M^–1 cm^–1. For the same compound, the “λabs (nm)” value [2] was 671 nm, the “λems (nm)” value [2] was 695 nm and the “φF (%) fluorescence quantum yield” value [2] was 8.2%. It also gave an IC50 ([3]; Homo sapiens, U-118-MG, 1 h, 660 nm LED 1 h, read-out: IC50 (light)) of 0.461 µM, an IC50 [3, 7] of 0.46 ± 0.02 µM and an IC50 [3, 8] of 60.4 ± 2.6 µM. It also gave an IC50 ([4]; Homo sapiens, U-87 MG, 1 h, 660 nm LED 1 h, read-out: IC50 (light)) of 0.456 µM, an IC50 [4, 9] of 0.38 µM and an IC50 [4, 10] of 65.8 ± 2.51 µM. For the same compound, the IC50 ([4]; dark, 24 h, read-out: IC50 (dark)) was 65.9 ± 2.5 µM.

With `c1cc2nc3ccc(=[N+]4CCOCC4)cc-3[se]c2cc1N1CCOCC1` [NSeMorph] the IC50 [1, 5] was > 20 µM, the IC50 [1, 6] was > 500 µM and the “ε (M^–1 cm^–1)” value [2] was 16,600 M^–1 cm^–1. The “λabs (nm)” value [2] was 671 nm, the “λems (nm)” value [2] was 717 nm and the “φF (%) fluorescence quantum yield” value [2] was 1.1%. It also gave an IC50 [3, 11] of 8.02 ± 0.34 µM, an IC50 [3, 7] of 8 µM and an IC50 [3, 8] of 375 ± 17.4 µM. The IC50 [4, 11] was 15.8 ± 0.84 µM, the IC50 [4, 9] was 15.8 µM and the IC50 [4, 10] was > 500 µM.

— PMC12648288, “Drastic Impact of Donor Substituents on Xanthenes in the PDT of Glioblastoma” (JACS Au, 2025)
